In BindingDB's records for doi:10.1021/ml300330m (Glaxosmithkline, 2013):

Test: Inhibition of PI3Kbeta human in PTEN wild type HCC1954 cells assessed as cell growth inhibition

Cc1nn2c(NC(N)=O)cc(N3CCOCC3)nc2c1Cc1cccc(C(F)(F)F)c1C
EC50: 12.6 µM

Cc1nn2c(N)cc(N3CCOCC3)nc2c1Cc1cccc(C(F)(F)F)c1C
EC50: 12.6 µM

Cc1nn2c(O)cc(N3CCOCC3)nc2c1Cc1cccc(C(F)(F)F)c1C
EC50: 15.8 µM

Cc1c(Cc2cnn3c(O)cc(N4CCOCC4)nc23)cccc1C(F)(F)F
EC50: 15.8 µM

Cc1nn2c(O)cc(C3CCOCC3)nc2c1Cc1cccc(C(F)(F)F)c1C
EC50: 25.1 µM

Cc1nn2c(O)cc(N3CCOCC3)nc2c1Cc1cccc2ccccc12
EC50: 31.6 µM
